According to ChEMBL document CHEMBL1201862, “PubChem BioAssay data set” (2004):
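In this assay, cells in 96-well plates receive the compound at five concentrations for 48 hours. Endpoints are linearly interpolated between the surrounding concentrations. GI50 = concentration required for 50% inhibition of growth.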 Activity calls are given as the source filed them. Rule as the data show it: active = GI50 up to about 1.1 µM and inactive = higher.

What was measured:
Assay in all cases: NCI anticancer screen, dose series, 48 h
[1] = system: NCI-H226
[2] = system: Malme-3M
[3] = system: EKVX
[4] = system: LOX IMVI
[5] = system: U-251
[6] = system: HCT-15
[7] = system: TK-10
[8] = system: Hs-578T
[9] = system: MDA-MB-231
[10] = system: HL-60
[11] = system: UO-31
[12] = system: SNB-75
[13] = system: OVCAR-4
[14] = system: NCI/ADR-RES
[15] = system: SK-MEL-5
[16] = system: T47D
[17] = system: SF-268
[18] = system: RPMI-8226
[19] = system: BT-549

| SMILES | GI50 [1] | GI50 [2] | GI50 [3] | GI50 [4] | GI50 [5] | GI50 [6] [µM] | GI50 [7] | GI50 [8] | GI50 [9] | GI50 [10] | GI50 [11] | GI50 [12] | GI50 [13] | GI50 [14] | GI50 [15] | GI50 [16] | GI50 [17] | GI50 [18] | GI50 [19] |
| --- | --- | --- | --- | --- | --- | --- | --- | --- | --- | --- | --- | --- | --- | --- | --- | --- | --- | --- | --- |
| CC(C)CC(NC(=O)C(Cc1ccccc1)NC(=O)[C@H]1CC[C@H](NC(=O)C(Cc2ccc(OC(C)(C)C)cc2)NC(=O)OC(C)(C)C)C1)C(N)=O (some centres not stated) | 18.6 µM (inactive) | 26.4 µM (inactive) | > 100 µM (inactive) | 17.1 µM (inactive) | 14.8 µM (inactive) | 18 | 29.3 µM (inactive) | 11.5 µM (inactive) | 31.9 µM (inactive) | 67 µM (inactive) | 47 µM (inactive) | 27.8 µM (inactive) | 29 µM (inactive) | > 100 µM (inactive) | 1.07 µM (active) | 18.5 µM (inactive) | 24.6 µM (inactive) | 17.7 µM (inactive) | – |
| COC(=O)Cc1cccc2c1CCC2=O | > 100 µM (inactive) | > 100 µM (inactive) | > 100 µM (inactive) | > 100 µM (inactive) | > 100 µM (inactive) | > 100 | > 100 µM (inactive) | > 100 µM (inactive) | > 100 µM (inactive) | > 100 µM (inactive) | > 100 µM (inactive) | > 100 µM (inactive) | > 100 µM (inactive) | > 100 µM (inactive) | > 100 µM (inactive) | > 100 µM (inactive) | > 100 µM (inactive) | > 100 µM (inactive) | – |
| CN1CCN(C)C1c1cccc(C2N(C)CCN2C)c1 | > 100 µM (inactive) | – | – | > 100 µM (inactive) | > 100 µM (inactive) | > 100 | – | – | – | > 100 µM (inactive) | > 100 µM (inactive) | 48.2 µM (inactive) | > 100 µM (inactive) | – | – | – | > 100 µM (inactive) | > 100 µM (inactive) | – |
| O=C1NC(Nc2ccccc2)=NC(C(F)(F)F)(C(F)(F)F)N1 | 41.1 µM (inactive) | 30.1 µM (inactive) | 38.4 µM (inactive) | 37.2 µM (inactive) | 27.9 µM (inactive) | 51.1 | 68.4 µM (inactive) | 55.3 µM (inactive) | 57.1 µM (inactive) | 31.6 µM (inactive) | 30.8 µM (inactive) | 11.5 µM (inactive) | 39.6 µM (inactive) | 71.1 µM (inactive) | 25.1 µM (inactive) | 36.4 µM (inactive) | 39.8 µM (inactive) | 34.1 µM (inactive) | – |
| O=C1Nc2c(Cl)cc(Cl)cc2/C1=N/N=C/c1ccccc1O | 27.2 µM (inactive) | 27.9 µM (inactive) | 11.5 µM (inactive) | 16.3 µM (inactive) | 17.2 µM (inactive) | 17.8 | 36.8 µM (inactive) | 26.5 µM (inactive) | 19.8 µM (inactive) | 21.1 µM (inactive) | 27.6 µM (inactive) | 23.5 µM (inactive) | 27.6 µM (inactive) | 19.5 µM (inactive) | 20.4 µM (inactive) | – | – | – | 15.1 µM (inactive) |
| COC(=O)/C=C/COCC1C2CCC(=O)C21 (configuration not stated) | > 100 µM (inactive) | > 100 µM (inactive) | > 100 µM (inactive) | > 100 µM (inactive) | > 100 µM (inactive) | > 100 | > 100 µM (inactive) | – | > 100 µM (inactive) | – | > 100 µM (inactive) | > 100 µM (inactive) | > 100 µM (inactive) | > 100 µM (inactive) | > 100 µM (inactive) | – | > 100 µM (inactive) | > 100 µM (inactive) | > 100 µM (inactive) |
| O=S1(=O)OCCOS(=O)(=O)C1(I)I | 15.3 µM (inactive) | 20.4 µM (inactive) | 27.5 µM (inactive) | 16.2 µM (inactive) | – | – | 27.3 µM (inactive) | – | – | 21.1 µM (inactive) | 18.7 µM (inactive) | 18.1 µM (inactive) | 19.7 µM (inactive) | – | 15.5 µM (inactive) | – | 20.4 µM (inactive) | 9.12 µM (inactive) | – |
| O=C(O)CNC(=O)C(CSC(=O)OCC1c2ccccc2-c2ccccc21)NC(=O)CCC(NC(=O)OCC1c2ccccc2-c2ccccc21)C(=O)O (configuration not stated) | 38.8 µM (inactive) | 20.7 µM (inactive) | 17.8 µM (inactive) | 0.0259 µM (active) | – | 20 | 22.2 µM (inactive) | 68.1 µM (inactive) | 17.9 µM (inactive) | 28.8 µM (inactive) | 18.7 µM (inactive) | – | 15 µM (inactive) | 17.5 µM (inactive) | 63.4 µM (inactive) | – | 17.5 µM (inactive) | 21.5 µM (inactive) | > 100 µM (inactive) |
| CNC(=O)NCCCCC(NC(=O)OCc1ccccc1)C(=O)OCc1ccccc1 (configuration not stated) | 60.3 µM (inactive) | 14.4 µM (inactive) | 98.9 µM (inactive) | 16.7 µM (inactive) | 23.9 µM (inactive) | > 100 | 21.9 µM (inactive) | – | – | 16.8 µM (inactive) | 18.2 µM (inactive) | 20.2 µM (inactive) | 22.3 µM (inactive) | – | 48.6 µM (inactive) | – | – | 24.2 µM (inactive) | – |
